# Measurements: US20260297042A1, “BIARYLAMIDE DERIVATIVES AND THEIR USE AS PKMYT1 INHIBITORS” (CANCER RESEARCH TECHNOLOGY LIMITED, priority 2023, published 2026)
# pIC50: −log10 of the molar value. Counter-ions that a name gives are not always drawn.
# Tests used:
# [1] = target: T1, Human PKMYT1 (Homo sapiens, UniProt Q99640); test: PKMYT1 biochemical ADP-Glo enzymatic assay; details: ADP-Glo
# T1 construct: Human PKMYT1 75-362 was cloned as a TEV cleavable 6xHis fusion; 6xHis (TEV cleavable) (cleaved yes); made in house; host or cells: bacterial cells
# T1 sequence (Q99640 75-362): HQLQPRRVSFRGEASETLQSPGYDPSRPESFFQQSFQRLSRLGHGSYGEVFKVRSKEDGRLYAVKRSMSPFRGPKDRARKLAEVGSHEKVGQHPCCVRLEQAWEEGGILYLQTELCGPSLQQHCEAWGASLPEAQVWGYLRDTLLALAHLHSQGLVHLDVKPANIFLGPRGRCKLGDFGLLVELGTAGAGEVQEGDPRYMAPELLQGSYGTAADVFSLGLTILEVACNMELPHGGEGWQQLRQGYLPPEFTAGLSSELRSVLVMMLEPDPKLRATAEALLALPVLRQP
# How it was run: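 PKMYT1 75-362 (His-cleaved, bacterial) 15 nM; ATP 500 µM; HEPES pH 7.5, MgCl2, EGTA, Brij-35, 1% DMSO; 60 min, 26 °C; ADP-Glo Max luminescence; 10-pt 3-fold titration → IC50; replicates within 3-fold, r2 >0.9.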
# [2] = target: T2, WEE1 (Homo sapiens, UniProt P30291); test: Selectivity versus WEE1 assay (ADP-Glo enzymatic assay); assay type: biochemical; details: for pIC50: ADP-Glo; for PKMYT1 vs. WEE1 selectivity: fold difference in selectivity for PKMYT1 over WEE1
# T2 construct: purchased Thermo Fisher PR7373A
# How it was run: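 15 nM WEE1, 30 µM ATP, 50 mM HEPES pH 7.5, 10 mM MgCl2, 1 mM EGTA, 0.01% Brij-35, 1% DMSO; 60 min, 26° C; ADP-Glo luminescence; IC50 from curve fit, replicates within 3-fold, r2 >0.9.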
# [3] = PKMYT1 kinase domain 15 nM, banded values
# [4] = 15 nM PKMYT1 kinase domain, 500 µM ATP, 60 minutes at 26° C., banded
# [5] = 15 nM WEE1, 60 minutes at 26° C., banded
# [6] = banded, ">N" = at least in this band but could be higher
# T2 sequence (P30291 whole entry): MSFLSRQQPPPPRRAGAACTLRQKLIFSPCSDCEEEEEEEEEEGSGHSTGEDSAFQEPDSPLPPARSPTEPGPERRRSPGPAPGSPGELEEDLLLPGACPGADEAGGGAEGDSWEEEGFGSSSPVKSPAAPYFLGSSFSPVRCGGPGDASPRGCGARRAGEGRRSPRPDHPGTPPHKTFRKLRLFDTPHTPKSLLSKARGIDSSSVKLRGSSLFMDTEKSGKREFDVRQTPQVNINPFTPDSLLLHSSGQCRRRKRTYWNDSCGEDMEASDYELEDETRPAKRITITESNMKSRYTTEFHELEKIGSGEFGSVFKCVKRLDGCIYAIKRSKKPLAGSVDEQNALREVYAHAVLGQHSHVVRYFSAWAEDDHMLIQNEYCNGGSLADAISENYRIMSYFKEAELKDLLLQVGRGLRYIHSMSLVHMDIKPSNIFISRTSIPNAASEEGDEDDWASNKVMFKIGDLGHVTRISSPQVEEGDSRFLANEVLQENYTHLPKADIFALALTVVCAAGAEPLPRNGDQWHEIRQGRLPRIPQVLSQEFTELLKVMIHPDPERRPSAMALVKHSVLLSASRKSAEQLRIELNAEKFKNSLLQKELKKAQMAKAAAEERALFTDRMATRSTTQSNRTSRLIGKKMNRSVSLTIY
structure (smiles),measurement,setting,value
"Cc1ccc(O)c(C)c1NC(=O)c1cnc(Nc2nc(C(F)(F)F)co2)s1 [BAA-438, N-(3-hydroxy-2,6-dimethylphenyl)-2-((4-(trifluoromethyl)oxazol-2-yl)amino) thiazole-5-carboxamide]",pIC50,[1]; [3],4.96 to 6.00
same,pIC50,"[2]; WEE1 15 nM, banded values",< 4.96
same,PKMYT1 vs. WEE1 selectivity,[2]; banded,W (10-<100 fold)
CCN1CCN(C(=O)Cn2ccc(Nc3ncc(C(=O)Nc4c(C)ccc(O)c4C)s3)n2)CC1 [BAA-177],pIC50,[1]; [4],> 7.30
same,pIC50,[2]; [5],< 4.96
same,PKMYT1 vs. WEE1 selectivity,[2]; [6],X (100-<1000 fold)
"Cc1ccc(O)c(C)c1NC(=O)c1cnc(Nc2ncc(C(F)(F)F)cn2)s1 [BAA-279, N-(3-hydroxy-2,6-dimethylphenyl)-2-((5-(trifluoromethyl)pyrimidin-2-yl)amino)thiazole-5-carboxamide]",pIC50,[1]; [4],> 7.30
same,pIC50,[2]; [5],< 4.96
same,PKMYT1 vs. WEE1 selectivity,[2]; [6],Y (1000-5000 fold)
"Cc1ccc(O)c(C)c1NC(=O)c1cnc(Nc2cc[nH]n2)s1 [BAA-003, N-(3-hydroxy-2,6-dimethyl-phenyl)-2-(1H-pyrazol-3-ylamino)thiazole-5-carboxamide]",pIC50,[1]; [4],4.96 to 6.00
same,pIC50,[2]; [5],< 4.96
same,PKMYT1 vs. WEE1 selectivity,[2]; [6],W (10-<100 fold)
"Cc1ccc(O)c(C)c1NC(=O)c1cnc(Nc2ccon2)s1 [BAA-009, N-(3-hydroxy-2,6-dimethyl-phenyl)-2-(isoxazol-3-ylamino)thiazole-5-carboxamide]",pIC50,[1]; [4],> 7.30
same,pIC50,[2]; [5],< 4.96
same,PKMYT1 vs. WEE1 selectivity,[2]; [6],X (100-<1000 fold)
Cc1ccc(O)c(C)c1NC(=O)c1cnc(Nc2ccn(CC(=O)N3CCOCC3)n2)s1 [BAA-033],pIC50,[1]; [4],> 7.30
same,pIC50,[2]; [5],< 4.96
same,PKMYT1 vs. WEE1 selectivity,[2]; [6],X (100-<1000 fold)
"Cc1ccc(O)c(C)c1NC(=O)c1nnc(Nc2ccn(C)n2)s1 [BAA-463, N-(3-Hydroxy-2,6-dimethylphenyl)-5-((1-methyl-1H-pyrazol-3-yl)amino)-1,3,4-thiadiazole-2-carboxamide]",pIC50,[1]; [3],6.00 to 7.30
same,pIC50,"[2]; WEE1 15 nM, banded values",< 4.96
same,PKMYT1 vs. WEE1 selectivity,[2]; banded,X (100-<1000 fold)
"Cc1ccc(O)c(C)c1NC(=O)c1cnc(Nc2cncc(-c3ccc(F)cc3)c2)s1 [BAA-305, 2-((5-(4-fluorophenyl)pyridin-3-yl)amino)-N-(3-hydroxy-2,6-dimethylphenyl)thiazole-5-carboxamide]",pIC50,[1]; [4],4.96 to 6.00
same,pIC50,[2]; [5],< 4.96
same,PKMYT1 vs. WEE1 selectivity,[2]; [6],W (10-<100 fold)
"Cc1ccc(O)c(C)c1NC(=O)c1cnc(Nc2c(C)cnn2Cc2cccc(F)c2)s1 [BAA-375, 2-((1-(3-Fluorobenzyl)-4-methyl-1H-pyrazol-5-yl)amino)-N-(3-hydroxy-2,6-dimethylphenyl)thiazole-5-carboxamide]",pIC50,[1]; [4],4.96 to 6.00
same,pIC50,[2]; [5],< 4.96
same,PKMYT1 vs. WEE1 selectivity,[2]; [6],W (10-<100 fold)
"Cc1ccc(O)c(C)c1NC(=O)c1cnc(Nc2cccc3c2OCC3)s1 [BAA-530, 2-((2,3-dihydrobenzofuran-7-yl)amino)-N-(3-hydroxy-2,6-dimethylphenyl)thiazole-5-carboxamide. TFA salt]",pIC50,[1]; [3],6.00 to 7.30
same,pIC50,"[2]; WEE1 15 nM, banded values",< 4.96
same,PKMYT1 vs. WEE1 selectivity,[2]; banded,X (100-<1000 fold)
"COCCNc1ncc(C(=O)Nc2c(C)ccc(O)c2C)s1 [BAA-063, N-(3-hydroxy-2,6-dimethyl-phenyl)-2-(2-methoxyethylamino)thiazole-5-carboxamide]",pIC50,[1]; [4],4.96 to 6.00
same,pIC50,[2]; [5],< 4.96
same,PKMYT1 vs. WEE1 selectivity,[2]; [6],>W (10-<100 fold)
"CCN(CC)C(=O)Cn1cc(C)c(Nc2ncc(C(=O)Nc3c(C)cc(Br)c(O)c3C)s2)n1 [BAA-608, N-(4-bromo-3-hydroxy-2,6-dimethylphenyl)-2-((1-(2-(diethylamino)-2-oxoethyl)-4-methyl-1H-pyrazol-3-yl)amino)thiazole-5-carboxamide]",pIC50,[1]; [3],6.00 to 7.30
same,pIC50,"[2]; WEE1 15 nM, banded values",< 4.96
same,PKMYT1 vs. WEE1 selectivity,[2]; banded,X (100-<1000 fold)
Cc1ccc(O)c(C)c1NC(=O)c1cnc(Nc2ccn(CC(=O)NCCN3CCOCC3)n2)s1 [BAA-035],pIC50,[1]; [4],6.00 to 7.30
same,pIC50,[2]; [5],< 4.96
same,PKMYT1 vs. WEE1 selectivity,[2]; [6],X (100-<1000 fold)
